The term EC50 denotes the concentration giving half of the maximal effect.

This experiment relates to Human immunodeficiency virus 1. The experiment in a line: Antiviral activity against Human immunodeficiency virus 1 assessed as inhibition of viral replication by MTT assay. Format: functional, organism-based. (In general: Formazan colour is commonly taken as a measure of viable cells.)
`[N-]=[N+]=N[C@]1(CO)O[C@@H](n2ccc3c(O)ncnc32)[C@@H](F)[C@@H]1O`: the EC50 was 13 µM.

As for `[N-]=[N+]=N[C@]1(CO)O[C@@H](n2ccc3c(N)ncnc32)[C@@H](F)[C@@H]1O`, the EC50 was 0.5 µM.

Take `[N-]=[N+]=N[C@]1(CO)O[C@@H](n2cc(F)c3c(N)ncnc32)[C@@H](F)[C@@H]1O`: the EC50 was 5.4 µM.

With `Cc1cn([C@H]2C[C@H](N=[N+]=[N-])[C@@H](CO)O2)c(=O)[nH]c1=O` [ZIDOVUDINE], the EC50 was 0.084 µM.
